# What was measured:
# [1] = pH-solubility profile (physical and chemical properties of drug substance); assay type: physicochemical; details: mono-hydrochloride salt
# [2] = pKa (physical and chemical properties of drug substance); assay type: physicochemical
# [3] = Phase 1 multiple ascending dose (MAD) study, intranasal, pharmacokinetics; assay type: in vivo, human; details: for AUC: human
# Experimental: A Phase 1, single-center, randomized, double-blind, placebo-controlled, sequential multiple ascending dose (MAD) study with 2 alternate dosing arms was conducted. […] The MAD portion of the study consists of 4 cohorts, with a maximum dose of 20 mg administered once daily for up to 14 days in 3 cohorts, and 20 mg administered twice daily for up to 8 days in the fourth cohort.
# In addition to the 4 MAD cohorts, there were 2 alternate dosing cohorts, each consisting of 1 day dosing. The first alternate dosing cohort assessed the effect of 2 sequential administrations of 20 mg (20 mg spray [100 μL of 200 mg/mL] in alternate nostrils); with a 30 minute interval between administrations. A 2nd alternate dosing cohort assessed the effect of 2 sequential administrations of 20 mg (20 mg spray [100 μL of 200 mg/mL] in alternate nostrils); with a nose blow and 5 minute interval between administrations.
# The PK data were collected from subjects in Cohorts 1 to 4.
# [4] = system: acute treatment of migraine; assay: Phase 2/3 clinical trial BHV3500-201 (Study 201), efficacy of intranasal zavegepant versus placebo; assay type: in vivo, human; details: for (2) Return to normal function at 2 hours posidose, Stratified Percentage Difference (Zavegepant − Placebo) / (7) Return to normal function at 60 minutes postdose, Stratified Percentage Difference (Zavegepant − Placebo) / (9) Return to normal function at 30 minutes postdose, Stratified Percentage Difference (Zavegepant − Placebo): subjects with functional disability at onset; for (9) Return to normal function at 30 minutes postdose, n/N (%): mITT subjects with functional disability at on-study migraine attack onset
# [5] = Phase 2/3 clinical trial BHV3500-201 (Study 201), safety, adverse events and liver function tests; assay type: in vivo, human
# [6] = Zavegepant 5 mg Group vs placebo, CMH weighting, mITT subjects
# [7] = Zavegepant 5 mg Group vs placebo, CMH weighting
# [8] = Zavegepant 5 mg Group, intranasal single dose, mITT subjects
# [9] = Zavegepant 10 mg Group vs placebo, CMH weighting, mITT subjects
# [10] = Zavegepant 10 mg Group vs placebo, CMH weighting
# [11] = Zavegepant 10 mg Group, intranasal single dose, mITT subjects
# [12] = Zavegepant 20 mg Group vs placebo, CMH weighting, mITT subjects
# [13] = Zavegepant 20 mg Group vs placebo, CMH weighting
# [14] = Zavegepant 20 mg Group vs placebo, CMH weighting, subjects with symptom present at onset
structure (smiles),measurement,setting,value
"Cc1cc(C[C@@H](NC(=O)N2CCC(c3cc4ccccc4[nH]c3=O)CC2)C(=O)N2CCN(C3CCN(C)CC3)CC2)cc2cn[nH]c12 [Zavegepant, (R)-N-(3-(7-methyl-1H-indazol-5-yl)-1-(4-(1-methylpiperidin-4-yl)piperazin-1-yl)-1-oxopropan-2-yl)-4-(2-oxo-1,2-dihydroquinolin-3-yl)piperidine-1-carboxamide]",pH-solubility profile,[1]; at lower pH,> 300 mg/mL
same,pH-solubility profile,[1]; pH = 8.2,105 mg/mL
same,pKa (second value),[2],8.8
same,Plasma Concentrations (Mean),"[3]; 5 mg, Day 14, 0.500 h",8.08 ng/mL
same,AUC,"[3]; in vivo, 5 mg",19 ng·h/mL
same,AUC,"[3]; in vivo, 10 mg",30.9 ng·h/mL
same,AUC,"[3]; in vivo, 20 mg",87.9 ng·h/mL
same,urine concentrations,[3]; in vivo,below the limit of quantitation
same,"Freedom from MBS (Most Bothersome Symptom), 2 Hour Endpoint",[4]; 5 mg single dose,39.0%
same,"Pain Relief at 15 Minutes Post-Dose, n/N (value in brackets)","[4]; 15 mg (so in the source), Prophylactic migraine medication use: Yes",13/50 (24.0)
same,return to normal function,[4]; 20 mg,return to normal function as early as 30 minutes
same,onset of pain relief,"[4]; 5, 10, and 20 mg single dose, stratified CMH tests, mITT",pain relief as early as 15 minutes post-dose
same,co-primary endpoints of pain freedom and freedom from MBS at 2 hours versus placebo,[4]; 10 and 20 mg single dose,statistically superior (p<0.05) to placebo
same,"(1) Pain relief at 2 hours postdose, Stratified Percentage Difference (Zavegepant − Placebo)",[4]; [6],4.2%
same,"(3) Rescue medication use within 24 hours postdose, Stratified Percentage Difference (Zavegepant − Placebo)",[4]; [6],−2.4%
same,"(4) Photophobia freedom at 2 hours postdose, Stratified Percentage Difference (Zavegepant − Placebo)",[4]; [6],4.6%
same,"(6) Pain relief at 60 minutes postdose, Stratified Percentage Difference (Zavegepant − Placebo)",[4]; [6],5.1%
same,"(8) Pain relief at 30 minutes postdose, Stratified Percentage Difference (Zavegepant − Placebo)",[4]; [6],1.9%
same,"(10) Sustained pain relief from 2 to 24 hours postdose, Stratified Percentage Difference (Zavegepant − Placebo)",[4]; [6],8.0%
same,"(11) Sustained pain freedom from 2 to 24 hours postdose, Stratified Percentage Difference (Zavegepant − Placebo)",[4]; [6],5.3%
same,"(12) Sustained pain relief from 2 to 48 hours postdose, Stratified Percentage Difference (Zavegepant − Placebo)",[4]; [6],7.4%
same,"(13) Sustained pain freedom from 2 to 48 hours postdose, Stratified Percentage Difference (Zavegepant − Placebo)",[4]; [6],5.5%
same,"(2) Return to normal function at 2 hours posidose, Stratified Percentage Difference (Zavegepant − Placebo)",[4]; [7],4.3%
same,"(7) Return to normal function at 60 minutes postdose, Stratified Percentage Difference (Zavegepant − Placebo)",[4]; [7],5.5%
same,"(9) Return to normal function at 30 minutes postdose, Stratified Percentage Difference (Zavegepant − Placebo)",[4]; [7],3.4%
same,"(14) Nausca freedom at 2 hours postdose, Stratified Percentage Difference (Zavegepant − Placebo)","[4]; Zavegepant 5 mg Group vs placebo, CMH weighting, subjects with symptom present at onset",1.8%
same,"(4) Photophobia freedom at 2 hours postdose, n/N (%)",[4]; [8],118/337 (35.0) %
same,"(6) Pain relief at 60 minutes postdose, n/N (%)",[4]; [8],182/387 (47.0) %
same,"(9) Return to normal function at 30 minutes postdose, n/N (%)","[4]; Zavegepant 5 mg Group, intranasal single dose",32/363 (8.8) %
same,"(1) Pain relief at 2 hours postdose, Stratified Percentage Difference (Zavegepant − Placebo)",[4]; [9],7.1%
same,"(3) Rescue medication use within 24 hours postdose, Stratified Percentage Difference (Zavegepant − Placebo)",[4]; [9],−1.1%
same,"(4) Photophobia freedom at 2 hours postdose, Stratified Percentage Difference (Zavegepant − Placebo)",[4]; [9],5.1%
same,"(6) Pain relief at 60 minutes postdose, Stratified Percentage Difference (Zavegepant − Placebo)",[4]; [9],4.2%
same,"(8) Pain relief at 30 minutes postdose, Stratified Percentage Difference (Zavegepant − Placebo)",[4]; [9],5.3%
same,"(10) Sustained pain relief from 2 to 24 hours postdose, Stratified Percentage Difference (Zavegepant − Placebo)",[4]; [9],6.8%
same,"(11) Sustained pain freedom from 2 to 24 hours postdose, Stratified Percentage Difference (Zavegepant − Placebo)",[4]; [9],6.1%
same,"(12) Sustained pain relief from 2 to 48 hours postdose, Stratified Percentage Difference (Zavegepant − Placebo)",[4]; [9],7.0%
same,"(13) Sustained pain freedom from 2 to 48 hours postdose, Stratified Percentage Difference (Zavegepant − Placebo)",[4]; [9],6.3%
same,"(2) Return to normal function at 2 hours posidose, Stratified Percentage Difference (Zavegepant − Placebo)",[4]; [10],7.1%
same,"(7) Return to normal function at 60 minutes postdose, Stratified Percentage Difference (Zavegepant − Placebo)",[4]; [10],1.8%
same,"(9) Return to normal function at 30 minutes postdose, Stratified Percentage Difference (Zavegepant − Placebo)",[4]; [10],2.1%
same,"(15) Pain relapse from 2 to 48 hours postdose, Stratified Percentage Difference (Zavegepant − Placebo)","[4]; Zavegepant 10 mg Group vs placebo, CMH weighting, subjects with pain freedom at 2 hours postdose",−17.0%
same,"(14) Nausca freedom at 2 hours postdose, Stratified Percentage Difference (Zavegepant − Placebo)","[4]; Zavegepant 10 mg Group vs placebo, CMH weighting, subjects with symptom present at onset",2.9%
same,"(3) Rescue medication use within 24 hours postdose, n/N (%)",[4]; [11],101/388 (26.0) %
same,"(6) Pain relief at 60 minutes postdose, n/N (%)",[4]; [11],180/391 (46.0) %
same,"(9) Return to normal function at 30 minutes postdose, n/N (%)","[4]; Zavegepant 10 mg Group, intranasal single dose",27/354 (7.6) %
same,"(15) Pain relapse from 2 to 48 hours postdose, n/N (%)","[4]; Zavegepant 10 mg Group, intranasal single dose, mITT subjects with pain freedom at 2 hours postdose",29/88 (33.0) %
same,"(1) Pain relief at 2 hours postdose, Stratified Percentage Difference (Zavegepant − Placebo)",[4]; [12],7.5%
same,"(3) Rescue medication use within 24 hours postdose, Stratified Percentage Difference (Zavegepant − Placebo)",[4]; [12],−7.1%
same,"(4) Photophobia freedom at 2 hours postdose, Stratified Percentage Difference (Zavegepant − Placebo)",[4]; [12],7.4%
same,"(6) Pain relief at 60 minutes postdose, Stratified Percentage Difference (Zavegepant − Placebo)",[4]; [12],7.8%
same,"(8) Pain relief at 30 minutes postdose, Stratified Percentage Difference (Zavegepant − Placebo)",[4]; [12],1.9%
same,"(10) Sustained pain relief from 2 to 24 hours postdose, Stratified Percentage Difference (Zavegepant − Placebo)",[4]; [12],8.9%
same,"(11) Sustained pain freedom from 2 to 24 hours postdose, Stratified Percentage Difference (Zavegepant − Placebo)",[4]; [12],6.7%
same,"(12) Sustained pain relief from 2 to 48 hours postdose, Stratified Percentage Difference (Zavegepant − Placebo)",[4]; [12],6.2%
same,"(13) Sustained pain freedom from 2 to 48 hours postdose, Stratified Percentage Difference (Zavegepant − Placebo)",[4]; [12],5.7%
same,"(2) Return to normal function at 2 hours posidose, Stratified Percentage Difference (Zavegepant − Placebo)",[4]; [13],7.3%
same,"(7) Return to normal function at 60 minutes postdose, Stratified Percentage Difference (Zavegepant − Placebo)",[4]; [13],1.7%
same,"(9) Return to normal function at 30 minutes postdose, Stratified Percentage Difference (Zavegepant − Placebo)",[4]; [13],4.5%
same,"(5) Phonophobia freedom at 2 hours postdose, Stratified Percentage Difference (Zavegepant − Placebo)",[4]; [14],9.3%
same,"(14) Nausca freedom at 2 hours postdose, Stratified Percentage Difference (Zavegepant − Placebo)",[4]; [14],3.7%
same,"(9) Return to normal function at 30 minutes postdose, n/N (%)","[4]; Zavegepant 20 mg Group, intranasal single dose",37/372 (9.9) %
same,secondary endpoints demonstrating early activity versus placebo,[4]; nominal p<0.05,superior to placebo on multiple secondary endpoints
same,durability of benefits (sustained pain freedom and pain relief 2 to 24 and 2 to 48 hours),"[4]; nominal p<0.05, 5, 10 and 20 mg (pain relief 2 to 48 h: 5 and 10 mg)",durable and sustained without rescue medication out to 48 hours
same,ALT or AST > 3x ULN (subjects),[5]; 5 mg (N = 388),0
same,Bilirubin > 2x ULN (subjects),[5]; 5 mg (N = 388),0
same,ALT or AST > 3x ULN (subjects),[5]; 10 mg (N = 394),0
same,Bilirubin > 2x ULN (subjects),[5]; 10 mg (N = 394),0
same,ALT or AST > 3x ULN (subjects),[5]; 20 mg (N = 403),0
same,Bilirubin > 2x ULN (subjects),[5]; 20 mg (N = 403),0
same,ALT or AST > 3x ULN (subjects),[5]; All zavegepant (N = 1185),0
same,Bilirubin > 2x ULN (subjects),[5]; All zavegepant (N = 1185),0
same,"hepatotoxicity signal (AST or ALT>3× ULN, total bilirubin>2× ULN)",[5]; any treatment arm,no signal of hepatoxicity
same,tolerability and safety,"[5]; intranasal, single dose trial",well tolerated and safe
same,AEs mild in intensity,[5]; single dose trial,> 80%
